Source: ChEMBL document CHEMBL6177985, “Discovery of Novel Cyclic Peptides as SMAD2-SMAD4 Interaction Inhibitors for the Treatment of Hepatic Fibrosis” (J Med Chem, 2025)
Activity calls are given as the source filed them. The rule behind the calls is not given here.

How the values were obtained:
LX-2 [1] = assay: Antifibrotic activity against TGF-beta1 stimulated human LX-2 cells assessed as reduction in COL1A1 expression at 100 uM incubated for 24 hrs by Western blotting analysis; type: functional, cell-based
LX-2 [2] = assay: Antifibrotic activity against TGF-beta1 stimulated human LX-2 cells assessed as reduction in alpha-SMA expression at 100 uM incubated for 24 hrs by Western blotting analysis; type: functional, cell-based
Homo sapiens = species on record: Homo sapiens; assay: Inhibition of TGF-beta induced his tagged human SMAD2/human SMAD4 interaction at 100 uM incubated for 1 hr followed by anti-His-HRP addition and measured after 1 hr by blocking assay relative to control; conditions: time 2.0 hrs

Molecule | Activity (LX-2 [1]) | Activity (LX-2 [2]) | inhibition (Homo sapiens) [%]
C[C@@H]1NC(=O)[C@@H]2CCCN2C(=O)[C@H](CCCNC(=N)N)NC(=O)[C@H]([C@@H](C)O)NC(=O)[C@H](CO)NC(=O)[C@H]([C@@H](C)O)NC(=O)[C@H](CCC(=O)O)NC(=O)[C@H](Cc2c[nH]c3ccccc23)NC(=O)[C@H](Cc2ccccc2)NC(=O)[C@@H](CO)NC1=O | Active | Active | 27.9
C[C@@H]1NC(=O)[C@@H]2CCCN2C(=O)[C@H](CCCNC(=N)N)NC(=O)[C@H]([C@@H](C)O)NC(=O)[C@H](CO)NC(=O)[C@H]([C@@H](C)O)NC(=O)[C@H](CCC(=O)O)NC(=O)[C@H](Cc2c[nH]c3ccccc23)NC(=O)[C@H](Cc2ccccc2)NC(=O)[C@H](CO)NC1=O | Active; Compound Showed Marginal Reduction Compared To M10 | Active; Compound Showed Marginal Reduction Compared To M10 | 42.7
C[C@H](NC(=O)[C@@H]1CCCN1C(=O)[C@H](CCCNC(=N)N)NC(=O)[C@@H](N)[C@@H](C)O)C(=O)N[C@H](CO)C(=O)N[C@@H](Cc1ccccc1)C(=O)N[C@@H](Cc1c[nH]c2ccccc12)C(=O)N[C@@H](CCC(=O)O)C(=O)N[C@H](C(=O)N[C@@H](CO)C(=O)O)[C@@H](C)O | Active | Active | 60.5
Ac-TRPASFWETS-OH | inactive | inactive | 51.9
H-ARPASFWETS-OH | inactive | inactive | 12.5
H-TAPASFWETS-OH | inactive | inactive | 8.6
H-TRAASFWETS-OH | inactive | inactive | 16.3
H-TRPAAFWETS-OH | Active | Active | 46.2
H-TRPADFWETS-OH | inactive | inactive | 6.1
H-TRPAEFWETS-OH | inactive | inactive | 24.2
H-TRPAFFWETS-OH | inactive | inactive | 34.7
H-TRPAKFWETS-OH | inactive | inactive | 32.5
H-TRPANFWETS-OH | inactive | inactive | 42.6
H-TRPAQFWETS-OH | inactive | inactive | 31.9
H-TRPARFWETS-OH | inactive | inactive | 17.4
H-TRPASAWETS-OH | Active | Active | 52.7
H-TRPASDWETS-OH | inactive | inactive | 23.6
H-TRPASEWETS-OH | inactive | inactive | 10.9
H-TRPASFAETS-OH | inactive | inactive | 6.5
H-TRPASFWATS-OH | inactive | inactive | 11.2
H-TRPASFWEAS-OH | inactive | inactive | 9.3
H-TRPASFWETA-OH | inactive | inactive | 14.5
H-TRPASFWETS-NH2 | inactive | inactive | 49.8
H-TRPASKWETS-OH | inactive | inactive | 35.2
H-TRPASNWETS-OH | inactive | inactive | 31.3
H-TRPASQWETS-OH | inactive | inactive | 32.4
H-TRPASRWETS-OH | inactive | inactive | 27.1
